Here are results for 1 compound from publication PMC7962536, “Isolation, Characterization, and Medicinal Potential of Polysaccharides of Morchella esculenta” (Molecules, 2021).

The assay deals with T1, tyrosinase enzyme from mushrooms.
T1 construct: gene PPO1; native mushroom tyrosinase preparation
The assay can be described thus: spectrophotometric L-DOPA oxidation, […] nm. It counts as biochemical. Conditions: L-DOPA as substrate, sodium phosphate buffer pH 6.8, 37 °C, 10 min preincubation; unreliable: extrapolated below the lowest listed concentration 12.5 µg/mL.

The term IC50 denotes the concentration that inhibits the measured activity by half.

In brackets after ≈: the same amount, converted by molar mass.

`O=c1cc(CO)occ1O` [kojic acid]: the half-maximal inhibitory concentration (IC50) is given as 8.25 ± 0.36 µg/mL (≈ 58.1 µM).
